Results taken from patent US20200215009A1, “Optimized Solution for the Treatment of Alzheimer's, Stroke, Cardiovascular and other Amyloid Related Diseases” (priority 2017, published 2020).

Experiments:
cellular glutathione = conditions: dose of about 22-65 mg/kg; cited from earlier work
L68Q cystatin C = target: T1, L68Q cystatin C (Homo sapiens, UniProt P01034, L94Q); assay: Preliminary trial of N-acetylcysteine in HCCAA patients expressing L68Q cystatin C, monitored by biopsy; format: in vivo
T1 construct: confirmed by genetic screen to express L68Q cystatin C; from tissue; host or cells: HCCAA patients; plaques and aggregated protein observed on biopsy
T1 sequence (P01034 27-146 L94Q): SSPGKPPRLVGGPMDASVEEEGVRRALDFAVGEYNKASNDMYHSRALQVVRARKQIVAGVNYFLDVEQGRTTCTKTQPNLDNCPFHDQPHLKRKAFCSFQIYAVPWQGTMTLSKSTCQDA
From the text: Three persons who had been identified through characteristic HCCAA symptoms confirmed by genetic screen to express L68Q cystatin C agreed to participate in a preliminary trial with a prototype drug to support antioxidant and other effects of GSH. N-acetylcysteine was used as a GSH-support/anti-cystatin-C-polymerization archetypical drug for conceptual proof and support of the hypotheses supporting this invention. […] One patient fully complied with the prescribed protocol. Two patients were only partially compliant. The fully compliant patient presented with a 50% reduction in plaques observed on biopsy.
Treatments are continuing, augmented by confirmatory/advisory biopsies. Biopsy intervals may be approximately weekly, but longer intervals are envisioned as sufficient to monitor effects and dosages and to encourage compliance in testing and treatment maintenance. For example, biopsy intervals may be weekly, biweekly, monthly, bimonthly, quarterly, semi-annual, annual, etc. Biopsy appointments may be used both for treatment/disease monitoring, but also to maintain patient attention and interaction. Medical advisory panels and insurance issues may also be considered in determining the frequency and type(s) of biopsies.

| disease arrest (L68Q cystatin C; all three HCCAA patients (one fully compliant, two partially compliant)) | reduction in plaques observed on biopsy (L68Q cystatin C; fully compliant patient) [%] | reduction of aggregated protein previously observed (L68Q cystatin C; one of the two partially compliant patients) | Structure (SMILES) | change in cellular glutathione shortly after administration (cellular glutathione) | duration of effect, waning in plasma post administration (cellular glutathione) [h] |
| --- | --- | --- | --- | --- | --- |
| – | – | – | O=C1N[C@H](C(=O)O)CS1 [OTC, L-2-oxothiazolidine-4-carboxolate] | double | ≤ 8 |
| disease arrest | 50 | significant reduction | CC(=O)N[C@@H](CS)C(=O)O [N-acetylcysteine] | – | – |
